Test results from patent US9695155B2, “Herbicidal substituted pyrimidinyloxy benzene compounds” (E. I. DU PONT DE NEMOURS AND COMPANY, priority 2013, dated 2017).

How the values were obtained:
ragweed [1] = assay: Test C preemergence; type: in vivo, Ambrosia elatior; details: Ambrosia artemisiifolia, pre-emergence
Procedure, shortened: (§1)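 Seeds were sown in loam–sand blend and sprayed preemergence, while plants at 1- to 4-leaf stage (2–18 cm) in peat-based medium received postemergence sprays; test chemicals were formulated in a non-phytotoxic solvent with surfactant. After 13–15 days in a greenhouse, injury was rated visually against controls, 0 (no effect) to 100 (complete control).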

waterhemp = assay: Test C postemergence; type: in vivo, Amaranthus rudis; details: Amaranthus tuberculatus, post-emergence
Procedure, shortened: as §1

pigweed = assay: Test A postemergence; type: in vivo, Amaranthus retroflexus; details: Amaranthus retroflexus, post-emergence
Procedure, shortened: (§2)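 Greenhouse pot test, loam/sand soil. Formulation: non-phytotoxic solvent mix plus surfactant. Pre: directed spray onto soil after sowing. Post: plants at 1–2 leaf, 2–10 cm. Rated visually vs untreated controls at ~10 d, 0 (no effect) to 100 (complete control).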

morningglory = assay: Test C postemergence; type: in vivo, Ipomoea coccinea; details: Ipomoea, post-emergence
Procedure, shortened: as §1

corn = assay: Test A postemergence; type: in vivo, Zea mays; details: Zea mays, post-emergence, 240 h
Procedure, shortened: as §2

giant foxtail = assay: Test C postemergence; type: in vivo, Setaria faberii; details: Setaria faberi, post-emergence
Procedure, shortened: as §1

ragweed [2] = assay: Test C postemergence; type: in vivo, Ambrosia elatior; details: Ambrosia artemisiifolia, post-emergence
Procedure, shortened: as §1

wheat = assay: Test A preemergence; type: in vivo, Triticum aestivum
Procedure, shortened: as §2

lambsquarters = assay: Test C preemergence; type: in vivo, Chenopodium album; details: Chenopodium album, pre-emergence
Procedure, shortened: as §1

large (Lg) crabgrass = assay: Test C postemergence; type: in vivo, Digitaria sanguinalis; details: Digitaria sanguinalis, post-emergence, postemergence, read-out: Plant response rating (0 to 100), Crabgrass, Large
Procedure, shortened: as §1

[3] = 125 g ai/ha, 0 to 100 scale where 0 is no effect and 100 is complete control

`N#Cc1cccc(Oc2ncc(Cl)cn2)c1-n1cc(C(F)(F)F)cn1` [Compound 58, 3-[(5-chloro-2-pyrimidinyl)oxy]-2-[4-(trifluoromethyl)-1H-pyrazol-1-yl]benzonitrile] showed a pest or weed control at 62 g/ha (ragweed [1]; 62 g ai/ha, preemergence, scale 0 (no effect) to 100 (complete control), read-out: Ragweed plant response rating) of 100%, a pest or weed control at 125 g/ha (ragweed [1]; 125 g ai/ha, preemergence, scale 0 (no effect) to 100 (complete control), read-out: Ragweed plant response rating) of 100% and a pest or weed control at 250 g/ha (ragweed [1]; 250 g ai/ha, preemergence, scale 0 (no effect) to 100 (complete control), read-out: Ragweed plant response rating) of 100%. The pest or weed control at 31 g/ha (ragweed [1]; Preemergence, 31 g ai/ha, scale 0 to 100, 0 no effect, 100 complete control, read-out: Plant response rating, Ragweed) was 85%, the pest or weed control at 125 g/ha (waterhemp; 125 g ai/ha, postemergence, read-out: Plant response rating (0 to 100), Waterhemp) was 90% and the pest or weed control at 250 g/ha (waterhemp; 250 g ai/ha, postemergence, read-out: Plant response rating (0 to 100), Waterhemp) was 100%. It also gave a pest or weed control at 31 g/ha (waterhemp; Postemergence, 31 g ai/ha, scale 0 to 100 (0 no effect, 100 complete control), 13 to 15 days, read-out: Plant response rating, Waterhemp) of 85%, a pest or weed control at 62 g/ha (waterhemp; Postemergence, 62 g ai/ha, scale 0 to 100 (0 no effect, 100 complete control), read-out: Plant response rating, Waterhemp) of 90% and a pest or weed control at 125 g/ha (pigweed; 125 g ai/ha, 0 to 100 scale where 0 is no effect and 100 is complete control, read-out: Plant response rating, Pigweed) of 100%. It also gave a pest or weed control at 500 g/ha (pigweed; 240 h, 500 g ai/ha, 0 to 100 scale, 0 no effect, 100 complete control, read-out: Plant response rating Pigweed) of 100%, a pest or weed control at 125 g/ha (morningglory; 125 g ai/ha, postemergence, read-out: Plant response rating (0 to 100), Morningglory) of 98% and a pest or weed control at 250 g/ha (morningglory; 250 g ai/ha, postemergence, read-out: Plant response rating (0 to 100), Morningglory) of 98%. For the same molecule, the pest or weed control at 31 g/ha (morningglory; Postemergence, 31 g ai/ha, scale 0 to 100 (0 no effect, 100 complete control), 13 to 15 days, read-out: Plant response rating, Morningglory) was 80%, the pest or weed control at 62 g/ha (morningglory; Postemergence, 62 g ai/ha, scale 0 to 100 (0 no effect, 100 complete control), read-out: Plant response rating, Morningglory) was 95% and the Corn plant response rating (crop injury, 0 = no effect, 100 = complete kill) at 125 g/ha (corn; [3]) was 100%. It also gave a plant injury at 500 g/ha (corn; 500 g ai/ha, 0 to 100 scale, 0 no effect, 100 complete control, read-out: Plant response rating Corn) of 100%, a pest or weed control at 125 g/ha (giant foxtail; 125 g ai/ha, postemergence, read-out: Plant response rating (0 to 100), Foxtail, Giant) of 80% and a pest or weed control at 250 g/ha (giant foxtail; 250 g ai/ha, postemergence, read-out: Plant response rating (0 to 100), Foxtail, Giant) of 95%. For the same molecule, the pest or weed control at 31 g/ha (giant foxtail; Postemergence, 31 g ai/ha, scale 0 to 100 (0 no effect, 100 complete control), 13 to 15 days, read-out: Plant response rating, Foxtail, Giant) was 15%, the pest or weed control at 62 g/ha (giant foxtail; Postemergence, 62 g ai/ha, scale 0 to 100 (0 no effect, 100 complete control), read-out: Plant response rating, Foxtail, Giant) was 40% and the pest or weed control at 125 g/ha (ragweed [2]; 125 g ai/ha, postemergence, read-out: Plant response rating (0 to 100), Ragweed) was 85%. For the same molecule, the pest or weed control at 250 g/ha (ragweed [2]; 250 g ai/ha, postemergence, read-out: Plant response rating (0 to 100), Ragweed) was 90%, the pest or weed control at 31 g/ha (ragweed [2]; Postemergence, 31 g ai/ha, scale 0 to 100 (0 no effect, 100 complete control), 13 to 15 days, read-out: Plant response rating, Ragweed) was 40% and the pest or weed control at 62 g/ha (ragweed [2]; Postemergence, 62 g ai/ha, scale 0 to 100 (0 no effect, 100 complete control), read-out: Plant response rating, Ragweed) was 45%. The “Plant response rating, Wheat” value (wheat; [3]) was 60, the plant injury at 500 g/ha (wheat; Triticum aestivum, pre-emergence, 240 h, 500 g ai/ha, 0 to 100 scale, 0 no effect, 100 complete control, approx. 10 days, read-out: Wheat plant response rating) was 90% and the pest or weed control at 62 g/ha (lambsquarters; 62 g ai/ha, preemergence, scale 0 (no effect) to 100 (complete control), read-out: Lambsquarters plant response rating) was 100%. It also gave a pest or weed control at 125 g/ha (lambsquarters; 125 g ai/ha, preemergence, scale 0 (no effect) to 100 (complete control), read-out: Lambsquarters plant response rating) of 100%, a pest or weed control at 250 g/ha (lambsquarters; 250 g ai/ha, preemergence, scale 0 (no effect) to 100 (complete control), read-out: Lambsquarters plant response rating) of 100% and a pest or weed control at 31 g/ha (lambsquarters; Preemergence, 31 g ai/ha, scale 0 to 100, 0 no effect, 100 complete control, read-out: Plant response rating, Lambsquarters) of 100%. For the same molecule, the pest or weed control at 125 g/ha (large (Lg) crabgrass; 125 g ai/ha) was 50% and the pest or weed control at 250 g/ha (large (Lg) crabgrass; 250 g ai/ha) was 85%.
